Results as given in patent publication US8575382B2, “Low molecular weight pharmacological activity modulators” (“Ivy Pharm” LLC, priority 2009, dated 2013).
Values joined by “and” are separate entries in the source; they are usually repeats but may differ in a detail not shown here. Equal entries are not always repeated. Marks after values point to notes of the source that are not given here.

How the values were obtained:
male rats with cytopenia = assay: Hemostimulating activity: general blood analysis of rats with cyclophosphane cytopenia; type: in vivo; details: for hemostimulating effect (in words): rats with cyclophosphane cytopenia, summary of Tables 5-7; for ESR / Erythrocytes / Leukocytes / Lymphoctes / Reticulocytes / Segmented neutrophils / Thrombocytes / Lymphocytes: rats, acetylcysteine 9.5, lithium carbonate 3, aC-Li 10, Cu-aC-Li:aC-Li 10 mg/kg
Experimental: The study was carried out on random-bred male white rats weighing 140-160 g, which were given a single subcutaneous injection of cyclophosphane in a dose of 100 mg/kg in physiological saline.
No. 3—animals which had received an injection of cyclophosphane and to which Cu-aC-Li:aC-Li in physiological saline was then administered in a dose of 10 mg/kg as a therapeutic means (amount of coordination compound 7.8×10^−8 M/kg);
No. 4—animals which had received an injection of cyclophosphane and to which aC-Li in physiological saline was then administered in a dose of 10 mg/kg as a therapeutic means;
No. 6—animals which had received an injection of cyclophosphane and to which acetylcysteine in physiological saline was then administered in a dose of 9.5 mg/kg as a therapeutic means (the amount of acetylcysteine was calculated on the basis of the proportion by weight of acetylcysteine (˜0.95) in 10 mg of […], which corresponds to 9.5 mg of the hydrogenated form of acetylcysteine).
The test preparations were administered on the third day after the administration of cyclophosphane.
Blood for hematological investigations was taken from the caudal vein 3, 7 and 14 days after administration of CP. At the end of each series (3, 7 and 14 days), the experimental animals were euthanized by an overdose of ether and blood was obtained from the caudal vein and bone marrow from the femur.
This study assessed the cellularity of the blood (the number of erythrocytes, thrombocytes, leukocytes, lymphocytes and neutrophils, and also the ESR) and bone marrow on 7-day administration of the test compounds to hemodepressed animals.

[1] = tested on: mice with hyperglycemia caused by glucose; assay: Glucose loading test, blood sugar level; type: in vivo
Experimental: the glucose loading test (reduction in the sugar content in animals with hyperglycemia, caused by administration of glucose when fasting); Blood was obtained after 1 h by caudal vein puncture and the serum glucose level was determined by the ortho-toluidine method. Experiments to study the effect of the test substances on the blood glucose level were carried out on white mice weighing 17-18 g. The animals were deprived of food from the evening prior to the experiment. […] Immediately after injecting the glucose, the experimental animals were injected subcutaneously with a reference preparation (insulin in a dose of 0.3 units/kg). […] The blood glucose level was determined over a period of 4 hours with intervals of 1 hour.

[2] = tested on: white rats with experimental diabetes; assay: Alloxan diabetes model; type: in vivo; details: for Cholesterol / Glucose / Total lipids / Triglycerides / β-lipoproteins: blood serum; for Body weight / Daily water consumption / Percent living: intragastrically once daily
Experimental: the alloxan diabetes model (reduction in the sugar content in the conditions of experimental chronic insulin insufficiency).
The alloxan diabetes model was used in another series of experiments. Alloxan diabetes was induced by a single subcutaneous injection of alloxan hydrate (Chemapol, Czech Republic) in a dose of 100 mg/kg in rats weighing 180-200 g which had fasted for 24 hours. The following groups of animals were studied: intact rats, untreated rats with diabetes, and animals with diabetes which were given thioctic acid daily for 1 month in a dose of 100 mg/kg, and thioctic acid in combination with the coordination compound in a dose of 10 mg/kg intragastrically once daily. Administration of the preparations commenced after 7 days, when the blood glucose level had roughly doubled as compared with the control. Each group contained 20 animals of both sexes. The general condition of the animals, the demand for food and water, the body weight, and the blood serum levels of glucose, total lipids, triglycerides, lipoproteins and cholesterol were recorded in the course of the experiment. […]

[3] = tested on: A431 line human epidermoid carcinoma cells; assay: Proliferative activity and death of A431 cells (cell count, propidium iodide flow cytofluorimetry); type: cell-based; details: for Proportion of dead cells / Total cells: A431, EGF 200 ng/ml
Experimental: The number of living and dead cells in a culture was determined after 24 and 48 hours.
A431 line human epidermoid carcinoma cells, obtained from the All-Russian Cell Culture Collection (Russian Academy of Sciences Institute of Cytology, St. Petersburg).
Cells are cultured in a CO2 incubator (New Brunswick Scientific) at +37° C. and with a CO2 content of 5%. Cells are grown in these conditions to a monolayer culture and are exposed to the action of the test compounds.
The DMEM medium (OOO PanEko, Moscow) with the addition of gentamicin K (80 mg/l), L-glutamine (300 mg/l) and fetal serum (PAA, Austria) to a final concentration of 10%, is used for culturing cells. Cells are transferred to a medium with a reduced serum content of 0.5% 24 hours before commencing an experiment.
The cells were then suspended by pipetting with an automatic pipette and were combined with the previously collected medium. Samples were centrifuged at room temperature for 5 min at 400 g, the supernatant was removed and the deposit was resuspended in pH 7.4 PBS phosphate-salt buffer.
Propidium iodide was added to a suspension of cells to a concentration of 50 μg/ml 5-10 min before measuring in a Bruker ACR 1000 flow cytofluorimeter. This stain is able to penetrate through a damaged cell membrane, and stained cells are dead.

[4] = day 3 after cyclophosphane 100 mg/kg
[5] = day 7 after cyclophosphane 100 mg/kg
[6] = day 14 after cyclophosphane 100 mg/kg
[7] = Table 2, age of culture 24 hours, cysteine […], C—Pd […], C—Pd:C […]
[8] = Table 2, age of culture 48 hours, cysteine […], C—Pd […], C—Pd:C […]

O=C([O-])[O-].[Li+].[Li+] [Li2HCO3, lithium carbonate]
hemostimulating effect (in words) (male rats with cytopenia): positive trends | ESR (male rats with cytopenia; [4]): 2.4 ± 0.42 mm/h | Erythrocytes (male rats with cytopenia; [4]): 3.7 ± 0.21 10^12/l | Leukocytes (male rats with cytopenia; [4]): 3.75 ± 0.46* 10^9/l | Lymphoctes (male rats with cytopenia; [4]): 62 ± 3.8 % | Reticulocytes (male rats with cytopenia; [4]): 0.118 ± 0.01 % | Segmented neutrophils (male rats with cytopenia; [4]): 19.7 ± 3.4 % | Thrombocytes (male rats with cytopenia; [4]): 256 ± 45.3 10^9/l | ESR (male rats with cytopenia; [5]): 2.0 ± 0.36 mm/h and 3.2 ± 0.80 mm/h | Erythrocytes (male rats with cytopenia; [5]): 3.6 ± 0.29 10^12/l and 3.2 ± 0.18 10^12/l | Leukocytes (male rats with cytopenia; [5]): 3.22 ± 0.11* 10^9/l and 4.8 ± 0.18** 10^9/l | Reticulocytes (male rats with cytopenia; [5]): 1.1 ± 0.1% and 1.2 ± 0.2% | Segmented neutrophils (male rats with cytopenia; [5]): 33 ± 1.7 % and 50.4 ± 0.6 % | Thrombocytes (male rats with cytopenia; [5]): 119 ± 12.0** 10^3/l and 164 ± 10.0** 10^3/l | ESR (male rats with cytopenia; [6]): 2.4 ± 0.65 mm/h | Erythrocytes (male rats with cytopenia; [6]): 4.9 ± 0.27 10^12/l | Leukocytes (male rats with cytopenia; [6]): 5.9 ± 0.26** 10^9/l | Lymphocytes (male rats with cytopenia; [6]): 69.3 ± 0.9% | Reticulocytes (male rats with cytopenia; [6]): 1.4 ± 0.3% | Segmented neutrophils (male rats with cytopenia; [6]): 14.9 ± 2.6 % | Thrombocytes (male rats with cytopenia; [6]): 401 ± 59.9 10^3/l

Insulin: reference preparation
Blood sugar level ([1]; insulin 0.3 units/kg subcutaneously, 1 hour): 1.2 ± 0.1 mmol/L | Blood sugar level ([1]; insulin 0.3 units/kg subcutaneously, 2 hours): 1.4 ± 0.1 mmol/L | Blood sugar level ([1]; insulin 0.3 units/kg subcutaneously, 3 hours): 1.6 ± 0.2 mmol/L | Blood sugar level ([1]; insulin 0.3 units/kg subcutaneously, 4 hours): 2.0 ± 0.1 mmol/L

CC(=O)N[C@@H](CS)C(=O)[O-].[Li+] [aC—Li, lithium salt of acetylcysteine]
hemostimulating effect (in words) (male rats with cytopenia): positive trends | ESR (male rats with cytopenia; [4]): 3.3 ± 0.80 mm/h | Erythrocytes (male rats with cytopenia; [4]): 4.0 ± 0.23 10^12/l | Leukocytes (male rats with cytopenia; [4]): 4.38 ± 0.31* 10^9/l | Lymphoctes (male rats with cytopenia; [4]): 45 ± 1.6 % | Reticulocytes (male rats with cytopenia; [4]): 0.1 ± 0.1 % | Segmented neutrophils (male rats with cytopenia; [4]): 42 ± 1.6 % | Thrombocytes (male rats with cytopenia; [4]): 387 ± 17.4 10^9/l | ESR (male rats with cytopenia; [6]): 2.7 ± 0.49 mm/h | Erythrocytes (male rats with cytopenia; [6]): 5.2 ± 0.26 10^12/l | Leukocytes (male rats with cytopenia; [6]): 5.6 ± 0.22** 10^9/l | Lymphocytes (male rats with cytopenia; [6]): 72.5 ± 1.4% | Reticulocytes (male rats with cytopenia; [6]): 1.3 ± 0.3% | Segmented neutrophils (male rats with cytopenia; [6]): 20.3 ± 2.4 % | Thrombocytes (male rats with cytopenia; [6]): 390 ± 38.3 10^3/l

CC(=O)N[C@@H](CS)C(=O)O [acetyl cysteine, acetylcysteine]
hemostimulating effect (in words) (male rats with cytopenia): positive trends | ESR (male rats with cytopenia; [4]): 2.2 ± 0.30 mm/h | Erythrocytes (male rats with cytopenia; [4]): 3.0 ± 0.29 10^12/l | Leukocytes (male rats with cytopenia; [4]): 3.26 ± 0.31* 10^9/l | Lymphoctes (male rats with cytopenia; [4]): 68 ± 2.8 % | Reticulocytes (male rats with cytopenia; [4]): 0.09 ± 0.006 % | Segmented neutrophils (male rats with cytopenia; [4]): 17.6 ± 2.1 % | Thrombocytes (male rats with cytopenia; [4]): 220 ± 45.3 10^9/l | ESR (male rats with cytopenia; [5]): 1.9 ± 0.39 mm/h | Erythrocytes (male rats with cytopenia; [5]): 3.1 ± 0.33 10^12/l | Leukocytes (male rats with cytopenia; [5]): 3.47 ± 0.08* 10^9/l | Lymphocytes (male rats with cytopenia; [5]): 51.5 ± 1.3 % | Segmented neutrophils (male rats with cytopenia; [5]): 30 ± 1.8 % | Thrombocytes (male rats with cytopenia; [5]): 124 ± 11 10^9/L | ESR (male rats with cytopenia; [6]): 2.1 ± 0.73 mm/h | Erythrocytes (male rats with cytopenia; [6]): 4.7 ± 0.21 10^12/l | Leukocytes (male rats with cytopenia; [6]): 5.7 ± 0.22** 10^9/l | Lymphocytes (male rats with cytopenia; [6]): 72.1 ± 1.6% | Reticulocytes (male rats with cytopenia; [6]): 1.1 ± 0.4% | Segmented neutrophils (male rats with cytopenia; [6]): 13.3 ± 1.9 %

O=C(O)CCCCC1CCSS1 (centres unmarked) [Thioctic acid, thioctic acid]
Cholesterol ([2]; 14 days): 2.4 ± 0.2 mmol/L | Glucose ([2]; 14 days): 5.2 ± 0.2 mmol/L | Total lipids ([2]; 14 days): 10.4 ± 0.5 g/L | Triglycerides ([2]; 14 days): 2.3 ± 0.2 mmol/L | β-lipoproteins ([2]; 14 days): 2.1 ± 0.2 g/L | Body weight ([2]; 14 days): 180 ± 10 g | Daily water consumption ([2]; 14 days): 25 ± 5 | Percent living ([2]; 14 days): 100% | Cholesterol ([2]; 20 days): 1.4 ± 0.2 mmol/L | Glucose ([2]; 20 days): 4.8 ± 0.1 mmol/L | Total lipids ([2]; 20 days): 10.2 ± 0.3 g/L | Triglycerides ([2]; 20 days): 1.5 ± 0.2 mmol/L | β-lipoproteins ([2]; 20 days): 2.1 ± 0.3 g/L | Body weight ([2]; 20 days): 185 ± 10 g | Daily water consumption ([2]; 20 days): 22 ± 5 | Percent living ([2]; 20 days): 100% | Cholesterol ([2]; 30 days): 1.4 ± 0.1 mmol/L | Glucose ([2]; 30 days): 4.6 ± 0.2 mmol/L | Total lipids ([2]; 30 days): 9.5 ± 0.2 g/L | Triglycerides ([2]; 30 days): 1.4 ± 0.2 mmol/L | β-lipoproteins ([2]; 30 days): 2.1 ± 0.3 g/L | Body weight ([2]; 30 days): 195 ± 10 g | Daily water consumption ([2]; 30 days): 20 ± 3 | Percent living ([2]; 30 days): 100% | Blood sugar level ([1]; 5.5 mg/kg intramuscularly, 1 hour): 4.3 ± 0.2 mmol/L | Blood sugar level ([1]; 5.5 mg/kg intramuscularly, 2 hours): 4.0 ± 0.2 mmol/L | Blood sugar level ([1]; 5.5 mg/kg intramuscularly, 3 hours): 4.4 ± 0.3 mmol/L | Blood sugar level ([1]; 5.5 mg/kg intramuscularly, 4 hours): 4.1 ± 0.1 mmol/L | Blood sugar level ([1]; 11 mg/kg intramuscularly, 1 hour): 4.5 ± 0.2 mmol/L | Blood sugar level ([1]; 11 mg/kg intramuscularly, 2 hours): 4.2 ± 0.2 mmol/L | Blood sugar level ([1]; 11 mg/kg intramuscularly, 3 hours): 4.2 ± 0.3 mmol/L | Blood sugar level ([1]; 11 mg/kg intramuscularly, 4 hours): 4.2 ± 0.1 mmol/L | Blood sugar level ([1]; 100 mg/kg intramuscularly, 1 hour): 3.0 ± 0.3 mmol/L | Blood sugar level ([1]; 100 mg/kg intramuscularly, 2 hours): 2.8 ± 0.1 mmol/L | Blood sugar level ([1]; 100 mg/kg intramuscularly, 3 hours): 2.5 ± 0.1 mmol/L | Blood sugar level ([1]; 100 mg/kg intramuscularly, 4 hours): 2.4 ± 0.3 mmol/L | Blood sugar level ([1]; 200 mg/kg intramuscularly, 1 hour): 2.7 ± 0.2 mmol/L | Blood sugar level ([1]; 200 mg/kg intramuscularly, 2 hours): 2.6 ± 0.3 mmol/L | Blood sugar level ([1]; 200 mg/kg intramuscularly, 3 hours): 2.3 ± 0.2 mmol/L | Blood sugar level ([1]; 200 mg/kg intramuscularly, 4 hours): 2.1 ± 0.2 mmol/L | hypoglycemizing effect (in words) ([1]; doses of 5.5 and 11 mg/kg, without the coordination compound): did not exhibit a hypoglycemizing effect

Epidermal growth factor: physiological high-affinity ligand of the EGF receptor
Proportion of dead cells [3, 7]: 19% | Total cells [3, 7]: 47300 mL⁻¹ | Proportion of dead cells [3, 8]: 23% | Total cells [3, 8]: 68800 mL⁻¹ | Proportion of dead cells ([3]; Table 3, 24 hours): 22% | Total cells ([3]; Table 3, 24 hours): 52000 mL⁻¹ | Proportion of dead cells ([3]; Table 3, 48 hours): 29% | Total cells ([3]; Table 3, 48 hours): 71700 mL⁻¹ | effect on the proliferative activity of A431 cells (in words) ([3]; summary of Table 2): maximum stimulating effect
